The assay addresses T1, Squalene synthase (Rattus norvegicus, UniProt Q02769).
T1 construct: from tissue; host or cells: liver microsomes of Charles River CD rats fed 0.1% lovastatin for 4 days
T1 sequence (Q02769 1-416): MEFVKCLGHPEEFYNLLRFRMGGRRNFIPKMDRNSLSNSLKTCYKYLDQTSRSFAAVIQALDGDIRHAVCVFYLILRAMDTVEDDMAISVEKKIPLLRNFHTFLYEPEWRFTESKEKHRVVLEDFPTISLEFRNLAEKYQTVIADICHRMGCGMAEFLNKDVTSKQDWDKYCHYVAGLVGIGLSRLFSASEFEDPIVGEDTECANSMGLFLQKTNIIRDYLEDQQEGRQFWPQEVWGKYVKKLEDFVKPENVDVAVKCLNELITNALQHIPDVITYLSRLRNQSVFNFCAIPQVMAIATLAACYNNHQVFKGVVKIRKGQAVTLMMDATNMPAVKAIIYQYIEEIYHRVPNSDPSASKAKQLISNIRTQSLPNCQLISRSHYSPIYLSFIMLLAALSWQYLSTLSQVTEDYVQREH
As to the kind of experiment: Squalene synthase assay (rat liver microsomes, [3H]farnesyl-pyrophosphate). The class given is biochemical. The conditions noted are these: 30° C., 20 minutes. On the procedure: The intrinsic squalene synthase inhibitory activity of representative compounds of this invention was measured by the standard in vitro protocol described below:
CHARLES RIVER CD rats (120 to 150 g) were fed a diet containing 0.1% lovastatin for 4 days. The livers from these rats were homogenized in 5 volumes (mL/g) of ice cold 50 mM HEPES (4-(2-hydroxyethyl)-1-piperazine-ethanesulfonic acid), 5 mM EDTA (ethylenediaminetetraacetic acid) pH 7.5 with a Potter-Elvehjem type tissue grinder. The homogenate was centrifuged twice at 20,000× g for 15 min. at 4° C., discarding the pellet each time. The supernatant was then centrifuged at 100,000× g for 1 hr at 4° C. The resulting microsomal pellet was resuspended in a volume of the above homogenizing buffer equal to one-fifth the volume of the original homogenate. This microsomal preparation has a protein concentration of about 7 mg/mL. The microsomal suspensions were stored in aliquots at -70° C. Squalene synthase activity in these aliquots is stable for a least several months. […]
If a squalene epoxidase inhibitor (ingredient (7) above), such as Banyu's FW-439H, is not used, the assay mix is degassed under a vacuum and flushed with N2. […] Five mL of scintillation fluid was added to the heptane solution and radioactivity was determined by liquid scintillation counting.
Percent inhibition is calculated by the formula: [formula]
(In general: Liver microsomes are vesicles of endoplasmic reticulum, rich in cytochrome P450 enzymes.)

For `CC(=O)OC(CCCC12OC(C(=O)O)C(O)(C(=O)O)C(C(=O)O)(O1)[C@H](OC(=O)CC/C=C/C(C)CCCc1ccccc1)[C@H]2O)C(C)Cc1cccs1` (stereo partly shown), the half-inhibitory concentration (IC50) was less than 131 nM.

As usually defined, the IC50 is the point on the concentration scale where inhibition reaches its midpoint. A higher IC50 goes with lower potency.

The values are drawn from patent publication US5294627A, “Directed biosynthesis of biologically active compounds” (Merck & Co., Inc., priority 1992, dated 1994).
